Laboratory results from paper PMC10962654 (Journal of Food and Drug Analysis, 2023).
Read-outs that look alike come from different tables or passages of the source.

Key:
[1] = system: α-HBDH; experiment: Plasma α-HBDH; format: in vivo, Sprague Dawley rats; settings: MI/R rats, Sigmoid-Emax model
[2] = system: cTn I; experiment: Plasma cTn I; format: in vivo, Sprague Dawley rats; settings: MI/R rats, Sigmoid-Emax model
[3] = system: IMA; experiment: Plasma IMA; format: in vivo, Sprague Dawley rats; settings: MI/R rats, Sigmoid-Emax model
[4] = MI/R rats, plasma, n = 6
[5] = system: CK-MB; experiment: Plasma CK-MB; format: in vivo, Sprague Dawley rats; settings: MI/R rats, Sigmoid-Emax model

Row | CL2 ([4]; GHI-H (GHI 10 mL/kg, i.v.)) [mL/min/kg] | K10 ([4]; GHI-H (GHI 10 mL/kg, i.v.)) [h⁻¹] | K12 ([4]; GHI-H (GHI 10 mL/kg, i.v.)) [h⁻¹] | K21 ([4]; GHI-H (GHI 10 mL/kg, i.v.)) [h⁻¹] | Q ([4]; GHI-H (GHI 10 mL/kg, i.v.)) [mL/min/kg] | V1 ([4]; GHI-H (GHI 10 mL/kg, i.v.)) [L/kg] | V2 ([4]; GHI-H (GHI 10 mL/kg, i.v.)) [L/kg] | t1/2α ([4]; GHI-H (GHI 10 mL/kg, i.v.)) [min] | CL1 ([4]; GHI-L (GHI […], i.v.)) [mL/min/kg] | CL2 ([4]; GHI-L (GHI […], i.v.)) [mL/min/kg] | K10 ([4]; GHI-L (GHI […], i.v.)) [h⁻¹] | K12 ([4]; GHI-L (GHI […], i.v.)) [h⁻¹] | K21 ([4]; GHI-L (GHI […], i.v.)) [h⁻¹] | Q ([4]; GHI-L (GHI […], i.v.)) [mL/min/kg] | V1 ([4]; GHI-L (GHI […], i.v.)) [L/kg] | V2 ([4]; GHI-L (GHI […], i.v.)) [L/kg] | t1/2α ([4]; GHI-L (GHI […], i.v.)) [min] | CL1 ([4]; GHI-M (GHI 5 mL/kg, i.v.)) [mL/min/kg] | CL2 ([4]; GHI-M (GHI 5 mL/kg, i.v.)) [mL/min/kg] | K10 ([4]; GHI-M (GHI 5 mL/kg, i.v.)) [h⁻¹] | Compound | also measured
1 | 173.38 ± 15.2 | 6.701 ± 1.078 | 27.459 ± 6.003 | 8.203 ± 0.823 | 173.3 ± 15.2 | 0.389 ± 0.059 | 1.273 ± 0.103 | 1.08 ± 0.18 | 44.48 ± 2.82 | 150 ± 15.1 | 4.274 ± 1.912 | 14.327 ± 4.021 | 3.902 ± 0.294 | 149.8 ± 15.1 | 0.672 ± 0.201 | 2.304 ± 0.146 | 2.04 ± 0.54 | 32.32 ± 2.43 | 120 ± 8.42 | 3.987 ± 0.663 | O=C(/C=C/c1ccc(O)c(O)c1)O[C@@H]1C[C@](O)(C(=O)O)C[C@@H](O)[C@H]1O [Chlorogenic acid, chlorogenic acid] | Emax (maximal effect) of optimal PK/PD equation, Δα-HBDH ([1]; GHI-H (10 mL/kg, i.v.)): 86.524; Emax (maximal effect) of optimal PK/PD equation, Δα-HBDH ([1]; GHI-L ([…], i.v.)): 48.745; Emax (maximal effect) of optimal PK/PD equation, Δα-HBDH ([1]; GHI-M (5 mL/kg, i.v.)): 72.774; Emax (maximal effect) of optimal PK/PD equation, ΔcTn I ([2]; GHI-M (5 mL/kg, i.v.)): 7.28; Emax (maximal effect) of optimal PK/PD equation, ΔIMA ([3]; GHI-L ([…], i.v.)): 28.211; CL1 ([4]; GHI-H (GHI 10 mL/kg, i.v.)): 42.57 ± 1.53 mL/min/kg; K12 ([4]; GHI-M (GHI 5 mL/kg, i.v.)): 14.709 ± 1.766 h⁻¹; K21 ([4]; GHI-M (GHI 5 mL/kg, i.v.)): 4.84 ± 0.29 h⁻¹; Q ([4]; GHI-M (GHI 5 mL/kg, i.v.)): 119.8 ± 8.4 mL/min/kg; V1 ([4]; GHI-M (GHI 5 mL/kg, i.v.)): 0.496 ± 0.08 L/kg; V2 ([4]; GHI-M (GHI 5 mL/kg, i.v.)): 1.49 ± 0.142 L/kg; t1/2α ([4]; GHI-M (GHI 5 mL/kg, i.v.)): 1.86 ± 0.18 min
2 | 120.9 ± 37.88 | 21.205 ± 16.45 | 26.235 ± 8.526 | 6.031 ± 0.862 | 121 ± 37.85 | 0.309 ± 0.126 | 1.207 ± 0.352 | 0.9 ± 0.24 | 88.93 ± 8.22 | 144.8 ± 10.5 | 11.259 ± 2.48 | 18.242 ± 3.358 | 2.929 ± 0.214 | 144.8 ± 10.5 | 0.493 ± 0.117 | 2.979 ± 0.292 | 1.38 ± 0.3 | 76.58 ± 3.37 | 76.22 ± 11.2 | 14.742 ± 5.174 | O=c1c(O[C@@H]2O[C@H](CO)[C@H](O)[C@H](O)[C@H]2O)c(-c2ccc(O)c(O)c2)oc2cc(O)cc(O)c12 [Hyperoside, hyperoside] | CL1 ([4]; GHI-H (GHI 10 mL/kg, i.v.)): 81.92 ± 12 mL/min/kg; K12 ([4]; GHI-M (GHI 5 mL/kg, i.v.)): 14.086 ± 2.688 h⁻¹; K21 ([4]; GHI-M (GHI 5 mL/kg, i.v.)): 4.889 ± 0.407 h⁻¹; Q ([4]; GHI-M (GHI 5 mL/kg, i.v.)): 76.2 ± 11.2 mL/min/kg; V1 ([4]; GHI-M (GHI 5 mL/kg, i.v.)): 0.34 ± 0.1 L/kg; V2 ([4]; GHI-M (GHI 5 mL/kg, i.v.)): 0.935 ± 0.119 L/kg; t1/2α ([4]; GHI-M (GHI 5 mL/kg, i.v.)): 1.38 ± 0.3 min
3 | – | – | – | – | – | – | – | – | – | – | – | – | – | – | – | – | – | – | – | – | CC(=O)N[C@@H](CCC(N)=O)C(=O)O [N-acetyl-L-glutamine] | Emax (maximal effect) of optimal PK/PD equation, Δα-HBDH ([1]; GHI-H (10 mL/kg, i.v.)): 91.925; Emax (maximal effect) of optimal PK/PD equation, Δα-HBDH ([1]; GHI-L ([…], i.v.)): 48.85; Emax (maximal effect) of optimal PK/PD equation, Δα-HBDH ([1]; GHI-M (5 mL/kg, i.v.)): 72.312; Emax (maximal effect) of optimal PK/PD equation, ΔCK-MB ([5]; GHI-L ([…], i.v.)): 11.04; Emax (maximal effect) of optimal PK/PD equation, ΔCK-MB ([5]; GHI-M (5 mL/kg, i.v.)): 13.089; Emax (maximal effect) of optimal PK/PD equation, ΔcTn I ([2]; GHI-H (10 mL/kg, i.v.)): 10.158; Emax (maximal effect) of optimal PK/PD equation, ΔcTn I ([2]; GHI-L ([…], i.v.)): 4.608; Emax (maximal effect) of optimal PK/PD equation, ΔcTn I ([2]; GHI-M (5 mL/kg, i.v.)): 6.714; Emax (maximal effect) of optimal PK/PD equation, ΔIMA ([3]; GHI-H (10 mL/kg, i.v.)): 77.916; Emax (maximal effect) of optimal PK/PD equation, ΔIMA ([3]; GHI-L ([…], i.v.)): 31.136; Emax (maximal effect) of optimal PK/PD equation, ΔIMA ([3]; GHI-M (5 mL/kg, i.v.)): 42.733; AUC(0-t) ([4]; GHI-H (GHI 10 mL/kg, i.v.)): 1048.88 ± 551.764 ng·h/mL; AUC(0-∞) ([4]; GHI-H (GHI 10 mL/kg, i.v.)): 1079.308 ± 551.248 ng·h/mL; t1/2β ([4]; GHI-H (GHI 10 mL/kg, i.v.)): 42.5 ± 4.98 min; AUC(0-t) ([4]; GHI-L (GHI […], i.v.)): 538.219 ± 290.308 ng·h/mL; AUC(0-∞) ([4]; GHI-L (GHI […], i.v.)): 553.382 ± 290.017 ng·h/mL; t1/2β ([4]; GHI-L (GHI […], i.v.)): 48.8 ± 4.68 min; AUC(0-t) ([4]; GHI-M (GHI 5 mL/kg, i.v.)): 1012.749 ± 472.353 ng·h/mL; AUC(0-∞) ([4]; GHI-M (GHI 5 mL/kg, i.v.)): 1060.065 ± 473.211 ng·h/mL; t1/2β ([4]; GHI-M (GHI 5 mL/kg, i.v.)): 27.7 ± 1.38 min

Row | Compound | CL2 ([4]; GHI-H (GHI 10 mL/kg, i.v.)) [mL/min/kg] | K10 ([4]; GHI-H (GHI 10 mL/kg, i.v.)) [h⁻¹] | K12 ([4]; GHI-H (GHI 10 mL/kg, i.v.)) [h⁻¹] | K21 ([4]; GHI-H (GHI 10 mL/kg, i.v.)) [h⁻¹] | Q ([4]; GHI-H (GHI 10 mL/kg, i.v.)) [mL/min/kg] | V1 ([4]; GHI-H (GHI 10 mL/kg, i.v.)) [L/kg] | V2 ([4]; GHI-H (GHI 10 mL/kg, i.v.)) [L/kg] | t1/2α ([4]; GHI-H (GHI 10 mL/kg, i.v.)) [min] | CL1 ([4]; GHI-L (GHI […], i.v.)) [mL/min/kg] | CL2 ([4]; GHI-L (GHI […], i.v.)) [mL/min/kg] | K10 ([4]; GHI-L (GHI […], i.v.)) [h⁻¹] | K12 ([4]; GHI-L (GHI […], i.v.)) [h⁻¹] | K21 ([4]; GHI-L (GHI […], i.v.)) [h⁻¹] | Q ([4]; GHI-L (GHI […], i.v.)) [mL/min/kg] | V1 ([4]; GHI-L (GHI […], i.v.)) [L/kg] | V2 ([4]; GHI-L (GHI […], i.v.)) [L/kg] | t1/2α ([4]; GHI-L (GHI […], i.v.)) [min] | CL1 ([4]; GHI-M (GHI 5 mL/kg, i.v.)) [mL/min/kg] | CL2 ([4]; GHI-M (GHI 5 mL/kg, i.v.)) [mL/min/kg] | K10 ([4]; GHI-M (GHI 5 mL/kg, i.v.)) [h⁻¹] | also measured
4 | O=c1c(O[C@@H]2O[C@H](CO)[C@@H](O)[C@H](O)[C@H]2O)c(-c2ccc(O)cc2)oc2cc(O)cc(O)c12 [Kaempferol-3-O-glucoside, kaempferol-3-O-glucoside] | 141.2 ± 10.2 | 9.636 ± 0.934 | 17.927 ± 1.512 | 6.02 ± 0.636 | 141.2 ± 10.2 | 0.475 ± 0.044 | 1.419 ± 0.173 | 1.32 ± 0.12 | 87.58 ± 9.88 | 133.3 ± 27.68 | 10.09 ± 2.541 | 15.148 ± 3.65 | 2.832 ± 0.492 | 133.3 ± 27.67 | 0.54 ± 0.101 | 2.822 ± 0.3 | 1.56 ± 0.3 | 68.72 ± 8.47 | 79.43 ± 17.82 | 8.042 ± 3.472 | Emax (maximal effect) of optimal PK/PD equation, ΔcTn I ([2]; GHI-L ([…], i.v.)): 4.625; AUC(0-t) ([4]; GHI-H (GHI 10 mL/kg, i.v.)): 116.314 ± 56.651 ng·h/mL; AUC(0-∞) ([4]; GHI-H (GHI 10 mL/kg, i.v.)): 122.652 ± 56.297 ng·h/mL; t1/2β ([4]; GHI-H (GHI 10 mL/kg, i.v.)): 23.1 ± 3.18 min; AUC(0-t) ([4]; GHI-L (GHI […], i.v.)): 23.576 ± 12.633 ng·h/mL; AUC(0-∞) ([4]; GHI-L (GHI […], i.v.)): 25.109 ± 12.653 ng·h/mL; t1/2β ([4]; GHI-L (GHI […], i.v.)): 40.4 ± 5.64 min; AUC(0-t) ([4]; GHI-M (GHI 5 mL/kg, i.v.)): 31.49 ± 12.303 ng·h/mL; AUC(0-∞) ([4]; GHI-M (GHI 5 mL/kg, i.v.)): 35.448 ± 11.949 ng·h/mL; K12 ([4]; GHI-M (GHI 5 mL/kg, i.v.)): 9.709 ± 5.342 h⁻¹; K21 ([4]; GHI-M (GHI 5 mL/kg, i.v.)): 3.087 ± 1.742 h⁻¹; Q ([4]; GHI-M (GHI 5 mL/kg, i.v.)): 79.4 ± 17.78 mL/min/kg; V1 ([4]; GHI-M (GHI 5 mL/kg, i.v.)): 0.59 ± 0.22 L/kg; V2 ([4]; GHI-M (GHI 5 mL/kg, i.v.)): 1.87 ± 0.735 L/kg; t1/2α ([4]; GHI-M (GHI 5 mL/kg, i.v.)): 2.7 ± 1.44 min; t1/2β ([4]; GHI-M (GHI 5 mL/kg, i.v.)): 41.5 ± 21.7 min
